Data as given in patent US20250367215A1, “PHARMACEUTICAL COMBINATION COMPRISING A CHOLANE DERIVATIVE AND A STATIN OR URSODESOXYCHOLIC ACID” (BAR PHARMACEUTICALS SOCIETA' A RESPONSABILITA' LIMITATA, priority 2022, published 2025).

Tested on: C57BL6 mice
Experiment: HFD-F diet-induced NASH mouse model, BAR502 and UDCA (Example 2)
Format: in vivo
Details: C57BL6 mice on HFD-F for 61 days; oral from day 6; UDCA 30 mg/kg alone or with BAR502 30 mg/kg
Source text: The mouse model of Example 1 was used once again. Using this mouse model, the inventors therefore investigated the effectiveness of the association between BAR502 and UDCA in preventing the development of NASH.

## C[C@H](CCC(=O)O)[C@H]1CC[C@H]2[C@@H]3[C@@H](O)C[C@@H]4C[C@H](O)CC[C@]4(C)[C@H]3CC[C@]12C [UDCA, ursodesoxycholic acid]
  effect on insulin resistance, glucose load curve (OGTT) (FIG. 9): beneficial effects on insulin resistance
